According to patent US20060275835A1, “Methods for identifying cell surface receptor protein modulators” (priority 2003, published 2006):

Legend:
Format in all cases: cell-based
CHONFAT cells = assay: β-lactamase reporter gene assay in non-transfected CHONFAT cells; settings: 200 nM thapsigargin; maximal fluorescence
Text: (§1) Aurora transcription based reporter cell lines were used to develop reporter gene assays for the mGluRs. The cell line, CHONFAT-β-lactamase, reports signaling through Gq-coupled receptors via an increase in intracellular calcium. The β-lactamase gene is under the transcriptional control of the nuclear factor of activated T-cells (N-FAT) promoter (reporting increased intracellular calcium). A second cell line Gqi5CHONFAT was utilized for Gi coupled mGluRs. This cell line contains a promiscuous G-protein that promotes coupling to a Gq signal transduction cascade. […] The production of β-lactamase resulting from the downstream signaling events of receptor activation is detected by loading cells with a fluorescent dye, CCF2-AM, a substrate cleavable by the β-lactamase enzyme. In its cleaved state, the substrate will fluoresce blue (EM460) when stimulated with UV light (395 nm). Noncleaved, the intact dye fluoresces green (EM530) (Science 1998, 279:84-88). The ratio of blue to green cells (Em460/530) is determined as a measure of signal transduction, with cells that have transduced a signal being blue and those that have not green. […]

mGluR5 [1] = target: T1, mGluR5 (Homo sapiens, UniProt P41594); assay: FLIPR Ca2+ flux assay in human mGluR5 CHONFAT/mGLAST cells; settings: Fluo-4, FLIPR384, normalized to glutamate (10 μM) control maximum; EC50 values only in figure
T1 construct: expressed in transfected cells
T1 sequence (P41594 21-1212): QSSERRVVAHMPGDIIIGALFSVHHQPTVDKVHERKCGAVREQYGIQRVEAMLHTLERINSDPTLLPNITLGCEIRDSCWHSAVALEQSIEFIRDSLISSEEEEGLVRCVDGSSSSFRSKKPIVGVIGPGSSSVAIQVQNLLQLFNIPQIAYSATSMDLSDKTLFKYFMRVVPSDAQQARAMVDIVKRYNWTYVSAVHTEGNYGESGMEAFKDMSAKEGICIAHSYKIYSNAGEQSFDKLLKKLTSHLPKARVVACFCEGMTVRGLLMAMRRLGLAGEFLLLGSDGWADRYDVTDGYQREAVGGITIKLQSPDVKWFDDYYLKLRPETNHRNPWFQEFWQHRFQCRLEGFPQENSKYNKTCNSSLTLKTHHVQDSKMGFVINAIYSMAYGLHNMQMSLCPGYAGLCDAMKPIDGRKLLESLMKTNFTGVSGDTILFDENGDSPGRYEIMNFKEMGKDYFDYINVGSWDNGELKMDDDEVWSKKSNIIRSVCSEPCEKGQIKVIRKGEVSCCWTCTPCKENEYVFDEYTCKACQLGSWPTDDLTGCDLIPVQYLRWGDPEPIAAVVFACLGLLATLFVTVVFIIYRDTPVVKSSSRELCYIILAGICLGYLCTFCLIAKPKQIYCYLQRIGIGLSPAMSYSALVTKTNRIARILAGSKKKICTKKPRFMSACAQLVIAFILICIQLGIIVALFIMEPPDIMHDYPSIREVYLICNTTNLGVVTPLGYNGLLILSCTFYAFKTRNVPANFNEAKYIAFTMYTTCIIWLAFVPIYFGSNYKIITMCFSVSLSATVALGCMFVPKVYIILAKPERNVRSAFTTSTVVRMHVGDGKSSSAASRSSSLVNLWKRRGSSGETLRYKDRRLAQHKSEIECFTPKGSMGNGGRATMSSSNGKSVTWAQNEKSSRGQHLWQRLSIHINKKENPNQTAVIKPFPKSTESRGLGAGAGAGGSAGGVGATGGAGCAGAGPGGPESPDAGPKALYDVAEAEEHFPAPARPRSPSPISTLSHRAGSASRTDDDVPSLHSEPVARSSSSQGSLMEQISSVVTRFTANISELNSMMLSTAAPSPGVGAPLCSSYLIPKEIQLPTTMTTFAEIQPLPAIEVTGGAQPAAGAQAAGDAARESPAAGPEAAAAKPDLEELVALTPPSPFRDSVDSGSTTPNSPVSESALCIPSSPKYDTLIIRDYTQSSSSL
Description: Agonists were added after 10 seconds of baseline determination. Data were normalized to a glutamate (10 μM) control maximum. Concentration-response curves were generated from mean data of 5 experiments. Error bars are SEM.
CHO cells expressing mGluR5 receptors (mGluR5 CHO cells) were plated in clear-bottomed, poly-D-lysine coated 384-well plates (Becton-Dickinson 35-6663 Franklin Lakes USA) in glutamate/glutamine-free medium using a Multidrop 384 cell dispenser (Thermo Labsystems, Franklin USA). The plated cells were grown overnight at 37° C. in the presence of 6% CO2. The following day, the cells were washed with 3×100 μl assay buffer (Hanks Balanced Salt Solution (Gibco 14025) containing 20 mM HEPES (Gibco 15630), 2.5 mM probenicid (Sigma P-8761), and 0.1% bovine serum albumin (Sigma) using an Embla cell washer (Skatron, Lier Norway). The cells were incubated with 1 μM Fluo-4AM (Molecular Probes) for 1 h at 37° C. and 6% CO2. The extracellular dye was removed by washing as described above. Ca^2+ flux was measured using FLIPR384, fluorometric imaging plate reader (Molecular Devices, Sunnyvale USA). For potency determination, the cells were pre-incubated with various concentrations of compound for 5 min and then stimulated for 3 min with either an EC20 or EC50 concentration of agonist (i.e. glutamate) for potentiation measurements or antagonist measurements, respectively.

mGluR5 [2] = target: T1, mGluR5; assay: β-lactamase reporter gene assay in mGluR5CHONFAT cells without mGLAST co-expression; settings: 1 μM quisqualate
Text: as §1

mGluR5 [3] = target: T1, mGluR5; assay: β-lactamase reporter gene assay in mGluR5CHONFAT co-expressing mGLAST
Text: Aurora transcription based reporter cell lines were used to develop reporter gene assays for the mGluRs. The cell line, CHONFAT-β-lactamase, reports signaling through Gq-coupled receptors via an increase in intracellular calcium. The β-lactamase gene is under the transcriptional control of the nuclear factor of activated T-cells (N-FAT) promoter (reporting increased intracellular calcium). A second cell line Gqi5CHONFAT was utilized for Gi coupled mGluRs. This cell line contains a promiscuous G-protein that promotes coupling to a Gq signal transduction cascade. […] The production of β-lactamase resulting from the downstream signaling events of receptor activation is detected by loading cells with a fluorescent dye, CCF2-AM, a substrate cleavable by the β-lactamase enzyme. In its cleaved state, the substrate will fluoresce blue (EM460) when stimulated with UV light (395 nm). Noncleaved, the intact dye fluoresces green (EM530) (Science 1998, 279:84-88). The ratio of blue to green cells (Em460/530) is determined as a measure of signal transduction, with cells that have transduced a signal being blue and those that have not green.
Cells were plated at 80,000 cells per well in poly-D-lysine coated black clear bottom plates (Becton Dickinson) and grown in glutamate/glutamine free media (DMEM, -glutamine, 10% dialyzed fetal calf serum, 100 units/ml penicillin/streptomycin, 0.1 mM non-essential amino acids, 1 mM sodium pyruvate, 25 mM HEPES, 0.25 mg/mL zeocin, 10 μg/ml puromycin (Clontech 8052-2) and 1 mg/mL G418 for cell lines co-expressing mGluRs and mGLAST. All media was from GIBCO unless specified. Cells were grown overnight at 5% CO2, 37° C. The next day, media was aspirated and the cells were washed twice with serum-free DMEM and replaced with 100 μL of assay media (DMEM, glutamine free), 0.1% BSA, 25 mM HEPES. […] Plates were read 45-60 minutes later on a fluorescence plate reader (excitation 405±10 nm, emission 460±20 nm for blue; 530±15 nm. Wells containing dye and no cells were used to subtract background values.

How did the “fluorescence ratio (EM460/530)” value (CHONFAT cells) turn out when `C/C=C(/C)C(=O)O[C@H]1C(C)=C2[C@H]([C@@H]1OC(=O)CCCCCCC)[C@@](C)(OC(C)=O)C[C@H](OC(=O)CCC)[C@@]1(O)[C@H]2OC(=O)[C@@]1(C)O` [thapsigargin] was run?
Its value is 1.0.

With `N[C@@H](CCC(=O)O)C(=O)O` [glutamate] as the compound, how does the “activation of Ca^2+ transients” value (mGluR5 [1]) read?
Its value is “activate Ca^2+ transients”.

What does the source list for `N[C@@H](Cn1oc(=O)[nH]c1=O)C(=O)O` [quisqualate]?
fluorescence ratio (EM460/530) (mGluR5 [2]): 0.85; activation of Ca^2+ transients (mGluR5 [1]): activate Ca^2+ transients; fluorescence ratio (EM460/530) (mGluR5 [3]; 10 μM quisqualate, with mGLAST co-expression): 1.35; EC50 (mGluR5 [3]; dose response in the absence of positive allosteric modulator): 44 nM; EC50 (mGluR5 [3]; dose response in the presence of 10 μM positive allosteric modulator): 15 nM

How did the “activation of Ca^2+ transients” value (mGluR5 [1]) turn out when `NC(C(=O)O)c1cc(O)cc(O)c1` (centres unmarked) [3,5-DHPG] was run?
The value was “activate Ca^2+ transients”.
